From ChEMBL document CHEMBL3132769, “Fragment growing to retain or alter the selectivity of anchored kinase hinge-binding fragments” (Medchemcomm, 2014) come the findings set out here.

Assay [1] deals with RAF proto-oncogene serine/threonine-protein kinase (Homo sapiens) (UniProt P04049). Description: Inhibition of human truncated c-Raf expressed in baculovirus assessed as substrate phosphorylation using fluorescence-labelled peptides as substrate at 0.1 uM after 90 mins by microfluidic peptide phosphorylation assay.
Sequence of RAF proto-oncogene serine/threonine-protein kinase (Homo sapiens) (P04049 whole entry, the tested form may be a part): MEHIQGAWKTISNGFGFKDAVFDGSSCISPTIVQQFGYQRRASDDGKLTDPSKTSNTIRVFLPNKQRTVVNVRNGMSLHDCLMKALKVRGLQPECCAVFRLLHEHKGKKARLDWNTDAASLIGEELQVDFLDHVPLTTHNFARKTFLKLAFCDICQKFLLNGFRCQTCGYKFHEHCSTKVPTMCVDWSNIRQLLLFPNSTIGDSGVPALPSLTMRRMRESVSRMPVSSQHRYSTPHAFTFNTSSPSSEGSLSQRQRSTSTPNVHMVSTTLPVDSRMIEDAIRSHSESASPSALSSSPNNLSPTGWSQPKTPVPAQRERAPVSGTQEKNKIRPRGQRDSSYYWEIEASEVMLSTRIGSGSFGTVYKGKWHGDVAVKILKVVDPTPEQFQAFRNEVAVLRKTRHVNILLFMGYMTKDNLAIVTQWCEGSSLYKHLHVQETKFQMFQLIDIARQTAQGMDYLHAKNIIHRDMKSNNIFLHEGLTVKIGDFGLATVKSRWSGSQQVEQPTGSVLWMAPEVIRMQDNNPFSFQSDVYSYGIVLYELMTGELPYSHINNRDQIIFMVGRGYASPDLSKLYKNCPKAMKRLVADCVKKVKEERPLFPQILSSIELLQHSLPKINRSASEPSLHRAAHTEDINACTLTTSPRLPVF
The target of assay [2] is Protein kinase C alpha type (Homo sapiens) (UniProt P17252). Particulars: 0.1 uM.
Description: Inhibition of human truncated PKC alpha expressed in baculovirus assessed as substrate phosphorylation using fluorescence-labelled peptides as substrate at 0.1 uM after 90 mins by microfluidic peptide phosphorylation assay
The target of assay [3] is Rho-associated protein kinase 2 (Homo sapiens) (UniProt O75116). Description: Inhibition of human ROCK2 catalytic domain expressed in baculovirus assessed as substrate phosphorylation using fluorescence-labelled peptides as substrate at 0.2 uM after 90 mins by microfluidic peptide phosphorylation assay.
Sequence of Rho-associated protein kinase 2 (Homo sapiens) (O75116 whole entry, looked up, the tested form may be a part): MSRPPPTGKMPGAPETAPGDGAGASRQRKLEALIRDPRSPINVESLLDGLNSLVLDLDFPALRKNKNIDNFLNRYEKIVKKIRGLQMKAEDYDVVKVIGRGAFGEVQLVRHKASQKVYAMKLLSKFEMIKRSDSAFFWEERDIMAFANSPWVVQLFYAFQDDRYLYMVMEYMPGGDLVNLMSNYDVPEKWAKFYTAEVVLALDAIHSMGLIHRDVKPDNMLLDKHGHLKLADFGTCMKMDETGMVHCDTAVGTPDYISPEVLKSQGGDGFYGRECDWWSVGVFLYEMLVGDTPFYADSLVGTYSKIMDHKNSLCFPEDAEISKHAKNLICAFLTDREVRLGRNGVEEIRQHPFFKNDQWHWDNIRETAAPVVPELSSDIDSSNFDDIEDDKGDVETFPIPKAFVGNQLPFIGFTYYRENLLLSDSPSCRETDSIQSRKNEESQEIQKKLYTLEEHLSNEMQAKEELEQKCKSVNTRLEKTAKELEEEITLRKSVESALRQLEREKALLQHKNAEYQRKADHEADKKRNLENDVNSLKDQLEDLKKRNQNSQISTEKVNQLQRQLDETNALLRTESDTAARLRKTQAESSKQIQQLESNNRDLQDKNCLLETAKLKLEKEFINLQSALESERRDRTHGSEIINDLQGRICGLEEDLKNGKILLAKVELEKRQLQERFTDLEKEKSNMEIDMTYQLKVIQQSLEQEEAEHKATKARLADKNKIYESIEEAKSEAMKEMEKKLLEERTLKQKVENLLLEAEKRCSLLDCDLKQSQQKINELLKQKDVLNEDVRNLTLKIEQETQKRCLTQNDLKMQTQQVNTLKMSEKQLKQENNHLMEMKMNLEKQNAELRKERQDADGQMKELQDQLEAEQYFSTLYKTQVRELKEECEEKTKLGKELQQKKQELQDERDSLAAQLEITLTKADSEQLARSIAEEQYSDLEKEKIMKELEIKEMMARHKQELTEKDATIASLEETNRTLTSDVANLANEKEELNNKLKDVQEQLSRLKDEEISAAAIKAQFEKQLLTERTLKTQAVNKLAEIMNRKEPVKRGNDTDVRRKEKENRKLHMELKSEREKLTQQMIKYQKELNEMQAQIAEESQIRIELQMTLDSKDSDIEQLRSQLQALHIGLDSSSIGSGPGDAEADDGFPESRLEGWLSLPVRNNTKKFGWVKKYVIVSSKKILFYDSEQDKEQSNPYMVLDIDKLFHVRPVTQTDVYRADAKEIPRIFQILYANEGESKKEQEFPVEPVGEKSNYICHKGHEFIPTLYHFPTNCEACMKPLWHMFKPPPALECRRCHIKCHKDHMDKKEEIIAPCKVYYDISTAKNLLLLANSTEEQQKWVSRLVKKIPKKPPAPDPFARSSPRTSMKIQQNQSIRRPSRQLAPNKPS
Assay [4] concerns the target Fibroblast growth factor receptor 3 (Homo sapiens) (UniProt P22607). The assay can be described thus: Inhibition of human FGFR3 catalytic domain expressed in baculovirus assessed as substrate phosphorylation using fluorescence-labelled peptides as substrate at 95 uM after 90 mins by microfluidic peptide phosphorylation assay.
Assay [5] has as its target T1, Serine/threonine-protein kinase BRSK1 (Homo sapiens) (UniProt Q8TDC3).
T1 sequence (whole entry): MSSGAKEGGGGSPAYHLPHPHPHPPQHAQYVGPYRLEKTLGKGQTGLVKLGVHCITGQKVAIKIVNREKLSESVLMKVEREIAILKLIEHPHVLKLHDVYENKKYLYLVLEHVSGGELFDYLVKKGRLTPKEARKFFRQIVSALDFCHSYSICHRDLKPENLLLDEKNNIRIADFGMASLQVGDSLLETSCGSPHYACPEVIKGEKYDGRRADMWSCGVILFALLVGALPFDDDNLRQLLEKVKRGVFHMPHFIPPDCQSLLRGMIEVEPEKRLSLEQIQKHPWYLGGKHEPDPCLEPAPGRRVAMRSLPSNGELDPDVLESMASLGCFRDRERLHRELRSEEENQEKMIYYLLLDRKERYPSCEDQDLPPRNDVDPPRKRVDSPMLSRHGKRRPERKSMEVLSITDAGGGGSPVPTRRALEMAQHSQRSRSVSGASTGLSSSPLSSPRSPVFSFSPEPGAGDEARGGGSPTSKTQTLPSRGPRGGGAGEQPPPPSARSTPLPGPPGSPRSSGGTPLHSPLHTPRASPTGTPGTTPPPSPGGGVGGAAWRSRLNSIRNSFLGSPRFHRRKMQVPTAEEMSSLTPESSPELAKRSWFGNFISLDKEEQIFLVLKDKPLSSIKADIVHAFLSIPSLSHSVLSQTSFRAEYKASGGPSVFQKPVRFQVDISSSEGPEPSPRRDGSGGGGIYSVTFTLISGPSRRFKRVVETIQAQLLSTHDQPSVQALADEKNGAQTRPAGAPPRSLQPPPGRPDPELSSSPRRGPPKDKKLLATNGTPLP
The assay can be described thus: Inhibition of human full length BRSK1 expressed in baculovirus assessed as substrate phosphorylation using fluorescence-labelled peptides as substrate at 70 uM after 90 mins by microfluidic peptide phosphorylation assay.

Assay [6] concerns the target T2, Interleukin-1 receptor-associated kinase 4 (Homo sapiens) (UniProt Q9NWZ3).
T2 sequence (whole entry): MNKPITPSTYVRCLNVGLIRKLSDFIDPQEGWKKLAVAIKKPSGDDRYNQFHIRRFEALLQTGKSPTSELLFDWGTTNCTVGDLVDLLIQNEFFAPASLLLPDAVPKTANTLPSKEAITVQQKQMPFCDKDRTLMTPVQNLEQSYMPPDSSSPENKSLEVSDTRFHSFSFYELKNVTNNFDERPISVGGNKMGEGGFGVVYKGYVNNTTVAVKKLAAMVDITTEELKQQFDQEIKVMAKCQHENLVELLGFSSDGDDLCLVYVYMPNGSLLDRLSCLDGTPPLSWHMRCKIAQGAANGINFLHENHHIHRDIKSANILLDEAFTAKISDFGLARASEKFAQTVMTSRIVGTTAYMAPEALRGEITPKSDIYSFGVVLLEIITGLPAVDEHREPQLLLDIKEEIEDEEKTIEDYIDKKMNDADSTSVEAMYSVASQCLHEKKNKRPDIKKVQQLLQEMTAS
Description: Inhibition of human IRAK4 catalytic domain expressed in baculovirus assessed as substrate phosphorylation using fluorescence-labelled peptides as substrate at 70 uM after 90 mins by microfluidic peptide phosphorylation assay.

Assay [7] has as its target T3, Protein kinase C epsilon type (Homo sapiens) (UniProt Q02156).
T3 sequence (whole entry): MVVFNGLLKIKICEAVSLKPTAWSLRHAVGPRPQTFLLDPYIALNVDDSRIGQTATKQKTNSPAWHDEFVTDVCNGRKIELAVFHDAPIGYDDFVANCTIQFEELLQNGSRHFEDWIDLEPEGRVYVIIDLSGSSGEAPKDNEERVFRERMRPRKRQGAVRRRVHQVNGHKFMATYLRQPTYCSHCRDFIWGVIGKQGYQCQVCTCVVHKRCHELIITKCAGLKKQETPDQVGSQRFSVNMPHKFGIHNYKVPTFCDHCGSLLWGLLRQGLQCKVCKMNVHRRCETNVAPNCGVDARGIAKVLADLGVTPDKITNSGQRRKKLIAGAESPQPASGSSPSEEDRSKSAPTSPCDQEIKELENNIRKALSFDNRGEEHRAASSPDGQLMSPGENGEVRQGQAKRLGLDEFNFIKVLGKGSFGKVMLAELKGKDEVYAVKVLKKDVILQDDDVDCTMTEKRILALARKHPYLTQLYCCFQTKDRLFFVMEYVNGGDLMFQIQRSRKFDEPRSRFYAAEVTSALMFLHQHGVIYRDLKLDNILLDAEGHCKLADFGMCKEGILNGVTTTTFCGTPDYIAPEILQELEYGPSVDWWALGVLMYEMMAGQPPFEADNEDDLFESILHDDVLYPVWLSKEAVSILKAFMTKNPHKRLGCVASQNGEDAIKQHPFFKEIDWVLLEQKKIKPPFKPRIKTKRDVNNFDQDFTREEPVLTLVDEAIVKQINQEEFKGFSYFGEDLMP
Description: Inhibition of human truncated PKC epsilon expressed in baculovirus assessed as substrate phosphorylation using fluorescence-labelled peptides as substrate at […] after 90 mins by microfluidic peptide phosphorylation assay.

Assay [8] deals with Protein kinase C delta type (Homo sapiens) (UniProt Q05655). Description: Inhibition of human truncated PKC delta expressed in baculovirus assessed as substrate phosphorylation using fluorescence-labelled peptides as substrate at 420 uM after 90 mins by microfluidic peptide phosphorylation assay.
Sequence of Protein kinase C delta type (Homo sapiens) (Q05655 whole entry, looked up, the tested form may be a part): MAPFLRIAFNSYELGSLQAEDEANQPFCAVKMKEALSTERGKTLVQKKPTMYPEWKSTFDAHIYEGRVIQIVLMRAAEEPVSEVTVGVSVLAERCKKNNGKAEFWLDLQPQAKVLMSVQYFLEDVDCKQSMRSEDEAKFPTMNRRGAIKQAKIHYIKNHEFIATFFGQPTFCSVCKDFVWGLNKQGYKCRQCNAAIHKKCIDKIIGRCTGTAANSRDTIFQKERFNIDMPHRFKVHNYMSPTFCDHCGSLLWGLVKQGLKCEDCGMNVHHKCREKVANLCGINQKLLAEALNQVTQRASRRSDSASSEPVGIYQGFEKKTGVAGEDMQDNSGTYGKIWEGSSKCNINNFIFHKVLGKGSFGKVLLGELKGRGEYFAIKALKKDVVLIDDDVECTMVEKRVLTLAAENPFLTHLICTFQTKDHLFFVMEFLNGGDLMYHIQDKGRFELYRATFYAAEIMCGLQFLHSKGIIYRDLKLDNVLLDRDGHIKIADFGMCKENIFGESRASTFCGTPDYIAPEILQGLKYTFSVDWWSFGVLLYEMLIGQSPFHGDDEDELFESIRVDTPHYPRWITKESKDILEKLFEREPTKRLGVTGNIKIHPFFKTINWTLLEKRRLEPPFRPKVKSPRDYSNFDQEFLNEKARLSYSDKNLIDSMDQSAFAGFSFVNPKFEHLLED

Sequence of Fibroblast growth factor receptor 3 (Homo sapiens) (P22607 23-806 limits assumed): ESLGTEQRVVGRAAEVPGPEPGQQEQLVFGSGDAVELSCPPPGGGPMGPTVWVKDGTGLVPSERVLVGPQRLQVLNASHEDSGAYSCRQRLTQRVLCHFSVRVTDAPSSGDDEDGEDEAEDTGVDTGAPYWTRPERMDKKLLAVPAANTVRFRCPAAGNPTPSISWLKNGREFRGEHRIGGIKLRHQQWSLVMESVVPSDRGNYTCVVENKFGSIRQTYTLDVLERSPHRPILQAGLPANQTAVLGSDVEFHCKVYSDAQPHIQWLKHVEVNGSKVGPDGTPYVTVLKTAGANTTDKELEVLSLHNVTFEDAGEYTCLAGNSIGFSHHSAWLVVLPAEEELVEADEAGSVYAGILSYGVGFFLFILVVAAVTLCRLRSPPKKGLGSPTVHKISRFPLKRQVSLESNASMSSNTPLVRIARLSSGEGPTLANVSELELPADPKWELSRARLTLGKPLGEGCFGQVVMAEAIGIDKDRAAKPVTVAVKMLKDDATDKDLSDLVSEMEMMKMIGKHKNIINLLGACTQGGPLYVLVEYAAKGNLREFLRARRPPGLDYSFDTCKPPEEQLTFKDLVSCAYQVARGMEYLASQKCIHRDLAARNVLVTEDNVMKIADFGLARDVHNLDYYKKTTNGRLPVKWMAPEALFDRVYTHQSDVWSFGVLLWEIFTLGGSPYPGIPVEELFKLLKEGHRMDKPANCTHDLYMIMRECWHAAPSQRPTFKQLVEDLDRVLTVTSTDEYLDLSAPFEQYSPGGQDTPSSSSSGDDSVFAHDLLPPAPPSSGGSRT

As usually defined, the inhibition is the share of the control response that was lost under treatment. For the compound `C[C@H](CN(C)C)Oc1nc(Nc2cc3cccc(Cl)c3cn2)cnc1C#N`, the inhibition in assay [1] worked out at 4%; in assay [2] it was 0%.

With `Clc1ccc(C2(c3ccc(-c4ncnc5[nH]cnc45)cc3)CCNCC2)cc1`, the inhibition in assay [3] was 97%.

As for `NCCc1ccc(-c2ncnc3[nH]cnc23)cc1`, the inhibition in assay [4] came to 27%.

`CNCc1ccc(-c2ncnc3[nH]cnc23)cc1`: the inhibition was found to be 29.5% in assay [5] and 15% in assay [6].

Take `COC(=O)c1cnc(Nc2cnc(C#N)cn2)cc1NCC1CCNCC1`: the inhibition in assay [7] is 1%.

For `c1nc(N2CCOCC2)c2nc[nH]c2n1`, in assay [8], the inhibition came out at 78.5%.
